“Also recorded” adds a separate entry of the source. Where a SMILES comes first, the peptide text is derived from it.
Columns and labels:
chicken PTH1R [1] = biological target: T1, chicken PTH1R (Gallus gallus, UniProt C7S302); assay: cAMP accumulation in HEK293 cells stably transfected with chicken PTH1R (radioimmunoassay); type: cell-based; details: for accumulation of cAMP with PTH1R, human peptide, in words: human peptides at 10 nM and 100 nM, single experiment in triplicate; for Emax (maximal cAMP production, PTH1R): mean ± SEM, 3 experiments in triplicate, above basal levels, * (PTHrP) p < 0.05 compared to other peptides
T1 sequence (C7S302 1-538): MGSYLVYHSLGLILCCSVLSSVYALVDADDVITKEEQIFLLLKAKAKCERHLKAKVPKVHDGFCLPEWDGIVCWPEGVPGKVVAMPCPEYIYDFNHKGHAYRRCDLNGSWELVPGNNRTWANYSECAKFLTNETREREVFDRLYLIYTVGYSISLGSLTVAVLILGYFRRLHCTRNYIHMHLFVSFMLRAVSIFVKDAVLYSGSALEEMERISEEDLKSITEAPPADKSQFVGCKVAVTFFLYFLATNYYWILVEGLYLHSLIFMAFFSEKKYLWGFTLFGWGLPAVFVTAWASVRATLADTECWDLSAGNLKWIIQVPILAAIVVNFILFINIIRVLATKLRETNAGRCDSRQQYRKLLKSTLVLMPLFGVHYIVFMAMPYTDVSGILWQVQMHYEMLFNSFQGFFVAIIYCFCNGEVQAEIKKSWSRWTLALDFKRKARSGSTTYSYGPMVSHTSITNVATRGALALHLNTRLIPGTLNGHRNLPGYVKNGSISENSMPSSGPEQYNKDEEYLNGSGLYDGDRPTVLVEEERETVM
Method: (§1) HEK293 cells were maintained in complete Dulbecco’s modified Eagle’s medium (DMEM, Sigma, Spain) with 4.5 g/L glucose, 110 mg/L sodium pyruvate and L-glutamine supplemented with 10% sterile foetal bovine serum and 0.1% penicillin: streptomycin antibiotic mixture (10.000 U:10 mg/ml, Sigma) in a humid 5% CO2 incubator (Sanyo) at 37°C. On the day prior to transfection, 2–3 x10^5 cells were seeded on 6 well-plates (Starsted, Portugal). Linearized constructs (1 μg) and Fugene 6 (Roche, Germany) cell transfection reagent were used to transfect cells according to the manufactures protocol. The transfection complex was incubated for 40 min at room temperature before adding to the cells which were left to grown for 72 hours with daily changes of complete medium. Selection of the stably transfected clones was performed with complete medium supplemented with 800 μg/ml of Geneticin (G418 sulphate, GibcoBRL) and 250 μg/ml sterile filtered 1:100 amphotericin B solution (Sigma, Spain). Cell recovery was monitored daily by constant changes of antibiotic selective medium and the success of gene integration and expression was confirmed by RT-PCR with receptor specific primers.
(§2) The capacity of chicken (1–34) PTH-family peptides to activate the stably transfected PTH1R and PTH3R cell lines was analysed by measuring intracellular cAMP production. Cell line bearing chicken receptors PTH1R and PTH3R were assayed in triplicate in the same assay in 96 well plates (Starstedt). Three independent experiments were performed. Cells were incubated at 37°C in a CO2 incubator and two days prior to the experiments, 2–3 x 10^5 cells were plated and peptide assays were carried out by adding to the recombinant cells decreasing concentrations of test peptide: 100 nM to 0.1 nM of chicken PTH(1–34), PTHrP(1–34) and PTH-L(1–34) or 100 nM of human PTH(1–34) and human TIP39 (Sigma, Spain). Prior to peptide addition, cells were incubated for 40 min with 1 mM 3-isobutyl-1-methylxantine (IBMX, Sigma), which was replaced with fresh medium containing the test peptide in the presence of 1 mM IBMX for a further 40 min. Forskolin (10 μM, Sigma) was used as positive control. Negative control assays were carried out using non-transfected cells in the presence or absence of 100 nM of each peptide. At the end of the assays, cells were washed, ressuspended in 100 μl of 1 x PBS/0.5 M EDTA and immediately frozen at −80°C to promote cell lysis for later quantification of intracellular cAMP production.
(§3) For quantification of intracellular cAMP, cells were lysed using 3 consecutive thaw (42°C)/freeze (−80°C) cycles and the supernatant and cell debris were sonicated for 20 sec on ice. Cells were boiled at 100°C for 10 min to denature proteins and the supernatant was collected after centrifugation for 10 min at 4°C and 19000 g. cAMP was quantified in duplicate by radioimmunoassay using the TRK432 kit (GE Healthcare, UK) following the manufacturer's instructions.
(§4) The results are presented as the mean ± SEM of three independent experiments carried out in triplicate for cAMP experiments and two independent experiments carried out in quadruplicate for Ca^2+ experiments. Data was plotted as the output of cAMP or Ca^2+ at different peptide concentrations for each PTHR using SigmaPlot 9 (Systat, Inc., San Jose, CA). EC50 and confidence limits were calculated using a sigmoidal curve fitting feature within the Single Ligand Binding routine of the Pharmacology module of Sigmaplot. […] To improve curve fitting the maximum empirical stimulation achieved for each receptor was assumed to be at 100 nM for all assays and the curve fitted accordingly.

Zebrafish PTH1R = details: N-terminal peptides; ref [8],[10]; cited from earlier work
Text: Chicken PTHRs are activated by PTH-family peptides in a dose-dependent manner. […] Mammalian PTH1R is activated by both PTH and PTHrP which have similar potency and stimulate both cAMP and iCa^2+ production.

chicken PTH1R [2] = biological target: T1, chicken PTH1R; assay: intracellular Ca^2+ accumulation in HEK293 cells transfected with chicken PTH1R (Fluo-4 NW); type: cell-based; details: HEK293, Fluo-4 NW; peptide 1 μM and 100 nM screen, decreasing concentrations
Method: as §1, with “The transfection complex was incubated for 40 min at room temperature before adding to the cells which were left to grown for 72 hours with daily changes of complete medium. Selection of the stably transfected clones was performed with complete medium supplemented with 800 μg/ml of Geneticin (G418 sulphate, GibcoBRL) and 250 μg/ml sterile filtered 1:100 amphotericin B solution (Sigma, Spain).” left out
(§5) Intracellular Ca^2+ (iCa^2+) release was measured using the Ca^2+ sensitive fluorescent dye Fluo-4 NW (Molecular Probes, Invitrogen) according to manufacturer’s instructions. […] Incubations were carried out with 100 μl of the different peptides concentrations (from 1 μM to 100 nM) and cell fluorescence was measured every 10 sec over 2 minutes after addition of reagent using a Synergy4 (Biotek, USA) plate reader. Carbachol (100 nM; Sigma, Spain) was used as a positive control for the assay and the background signal was determined by measuring fluorescence in wells containing non-transfected cells. […]

chicken PTH3R [3] = biological target: T2, chicken PTH3R (Gallus gallus, UniProt G8YY06); assay: cAMP accumulation in HEK293 cells stably transfected with chicken PTH3R (radioimmunoassay); type: cell-based; details: for stimulation of PTH3R cAMP accumulation, comparison in words: chicken 1–34 peptides, 0.1 nM to 100 nM; for Emax (maximal cAMP production, PTH3R): mean ± SEM, 3 experiments in triplicate, above basal levels, * (PTH-L) p < 0.05 compared to other peptides
T2 sequence (G8YY06 1-530): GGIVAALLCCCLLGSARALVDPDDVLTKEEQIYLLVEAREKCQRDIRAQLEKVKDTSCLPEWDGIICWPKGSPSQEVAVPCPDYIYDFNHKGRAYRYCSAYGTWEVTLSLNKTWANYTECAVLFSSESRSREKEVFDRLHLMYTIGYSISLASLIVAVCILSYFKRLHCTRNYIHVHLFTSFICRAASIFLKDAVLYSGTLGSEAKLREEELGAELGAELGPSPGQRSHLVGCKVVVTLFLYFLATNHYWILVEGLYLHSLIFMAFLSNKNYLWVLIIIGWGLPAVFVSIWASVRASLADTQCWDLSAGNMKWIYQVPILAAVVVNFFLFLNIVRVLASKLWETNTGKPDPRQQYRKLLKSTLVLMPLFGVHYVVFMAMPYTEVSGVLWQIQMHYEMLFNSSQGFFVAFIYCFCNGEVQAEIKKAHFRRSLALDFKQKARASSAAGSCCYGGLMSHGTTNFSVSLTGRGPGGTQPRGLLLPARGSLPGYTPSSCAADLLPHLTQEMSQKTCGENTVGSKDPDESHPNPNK
Method: as §1, §2, §3, §4

chicken PTH3R [4] = biological target: T2, chicken PTH3R; assay: intracellular Ca^2+ accumulation in HEK293 cells transfected with chicken PTH3R (Fluo-4 NW); type: cell-based; details: HEK293, Fluo-4 NW; 1 μM and 100 nM of each peptide
Method: as §1, with “The transfection complex was incubated for 40 min at room temperature before adding to the cells which were left to grown for 72 hours with daily changes of complete medium. Selection of the stably transfected clones was performed with complete medium supplemented with 800 μg/ml of Geneticin (G418 sulphate, GibcoBRL) and 250 μg/ml sterile filtered 1:100 amphotericin B solution (Sigma, Spain).” left out
as §5

cAMP accumulation, human peptide on chicken PTH1R (chicken PTH1R [1]; 10^-7 M, mean ± SEM of a single experiment carried out in triplicate (Additional file 4)) | Emax (maximal cAMP production, PTH1R) (chicken PTH1R [1]) | Emax (maximal cAMP production, PTH3R) (chicken PTH3R [3]) | release of intracellular Ca^2+ on PTH3R activation, in words (chicken PTH3R [4]) | Compound | accumulation of cAMP with PTH1R, human peptide, in words (chicken PTH1R [1]) | activation of zebrafish PTH1R, in words (Zebrafish PTH1R) | intracellular Ca^2+ accumulation with PTH1R, in words (chicken PTH1R [2]) | stimulation of PTH3R cAMP accumulation, comparison in words (chicken PTH3R [3]) | cAMP production with PTH3R, human peptide, in words (chicken PTH3R [3]; human peptides at 10 nM and 100 nM, single experiment in triplicate) | stimulation of PTH1R cAMP accumulation, comparison in words (chicken PTH1R [1]; chicken 1–34 peptides, 0.1 nM to 100 nM) | stimulation of PTH3R cAMP accumulation, comparison in words (chicken PTH3R [3]; listed as PTHrP(1–34))
21.4 ± 10 pmol/well |  |  |  | Human PTH: human PTH(1–34) [reference compound] | stimulated cAMP production with an apparently similar potency to chicken PTHrP | activated similarly |  |  |  |  | 
 | 6.03 ± 0.78 pmol/well | 144.7 ± 20.02 pmol/well |  | CSCC[C@H](NC(=O)[C@H](CC(C)C)NC(=O)[C@H](CCC(N)=O)NC(=O)[C@H](CCSC)NC(=O)[C@H](CCC(=O)O)NC(=O)[C@H](CO)NC(=O)[C@@H](NC(=O)[C@@H](N)CO)C(C)C)C(=O)N[C@@H](Cc1c[nH]cn1)C(=O)N[C@@H](CC(N)=O)C(=O)N[C@@H](CC(C)C)C(=O)NCC(=O)N[C@@H](CCC(=O)O)C(=O)N[C@@H](Cc1c[nH]cn1)C(=O)N[C@@H](CCCNC(=N)N)C(=O)N[C@@H](Cc1c[nH]cn1)C(=O)N[C@H](C(=O)N[C@H](C(=O)N[C@@H](CCC(=O)O)C(=O)N[C@@H](CCCNC(=N)N)C(=O)N[C@@H](CCC(N)=O)C(=O)N[C@@H](CC(=O)O)C(=O)N[C@@H](Cc1c[nH]c2ccccc12)C(=O)N[C@@H](CC(C)C)C(=O)N[C@@H](CCC(N)=O)C(=O)N[C@@H](CCSC)C(=O)N[C@@H](CCCCN)C(=O)N[C@@H](CC(C)C)C(=O)N[C@@H](CCC(N)=O)C(=O)N[C@@H](CC(=O)O)C(=O)N[C@H](C(=O)N[C@@H](Cc1c[nH]cn1)C(=O)N[C@@H](CO)C(=O)N[C@@H](C)C(=O)O)C(C)C)C(C)C)[C@@H](C)O [PTH] (H-SVSEMQLMHNLGEHRHTVERQDWLQMKLQDVHSA-OH; N-terminus and C-terminus assumed) |  |  | had no effect | Stimulation of PTH3R was highest for PTHrP and PTH |  |  | 
 |  |  |  | Human TIP39: human TIP39 (Sigma, Spain), tuberoinfundibular peptide 39 [reference compound] | failed to induce accumulation of cAMP with PTH1R |  |  |  | only negligible cAMP production was obtained for PTH3R |  | 
 | 17.21 ± 1.84 * pmol/well | 119.9 ± 11.76 pmol/well | not PTH3R | CC[C@H](C)[C@H](NC(=O)[C@H](CC(C)C)NC(=O)[C@H](CC(N)=O)NC(=O)[C@H](CCC(N)=O)NC(=O)[C@H](CC(C)C)NC(=O)[C@H](Cc1ccccc1)NC(=O)[C@@H](NC(=O)[C@H](CCCNC(=N)N)NC(=O)[C@H](CCCNC(=N)N)NC(=O)[C@H](CCCNC(=N)N)NC(=O)[C@H](CC(C)C)NC(=O)[C@H](CC(=O)O)NC(=O)[C@H](CCC(N)=O)NC(=O)[C@@H](NC(=O)[C@H](CO)NC(=O)[C@H](CCCCN)NC(=O)CNC(=O)[C@H](CCCCN)NC(=O)[C@H](CC(=O)O)NC(=O)[C@H](Cc1c[nH]cn1)NC(=O)[C@H](CC(C)C)NC(=O)[C@H](CC(C)C)NC(=O)[C@H](CCC(N)=O)NC(=O)[C@H](Cc1c[nH]cn1)NC(=O)[C@H](CCC(=O)O)NC(=O)[C@H](CO)NC(=O)[C@@H](NC(=O)[C@H](C)N)C(C)C)[C@@H](C)CC)[C@@H](C)CC)C(=O)N[C@@H](CCC(=O)O)C(=O)NCC(=O)N[C@H](C(=O)N[C@@H](CC(N)=O)C(=O)N[C@H](C(=O)N[C@@H](C)C(=O)O)[C@@H](C)O)C(C)C [PTHrP] (H-AVSEHQLLHDKGKSIQDLRRRIFLQNLIEGVNTA-OH; N-terminus and C-terminus assumed) |  |  | stimulated intracellular Ca^2+ accumulation on activation of PTH1R; also recorded: efficiently stimulated iCa^2+ accumulation with PTH1R | Stimulation of PTH3R was highest for PTHrP and PTH |  | produced the highest stimulation of PTH1R (p < 0.05) | had overlapping potency with PTH(1–34) for the latter receptor

Source: article PMC3483286, “Functional characterization and evolution of PTH/PTHrP receptors: insights from the chicken” (BMC Evolutionary Biology, 2012)
